Test results from patent US20230111310A1, “CARBOXYLIC ACID DERIVATIVE-SUBSTITUTED IMINO ARYL COMPOUND, PREPARATION METHOD THEREFOR, HERBICIDAL COMPOSITION AND USE THEREOF” (Qingdao Kingagroot Chemical Compound Co., Ltd., priority 2020, published 2023).

Assays:
Assay in all cases: Weeding effect in post-emergence stage
Format in all cases: in vivo
Alopecurus japonicus = details: for Weeding effect in post-emergence stage, Alopecurus japonicus: level of fresh weight growth control rate; for Weeding effect in post-emergence stage, Alopecurus japonicus (level): fresh weight control rate level
Summary of the method: (§1)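 Read-out is growth control rate, counted 3 weeks post-spray and averaged over three repeats. Greenhouse plants at the 2-3 leaf stage received spray-tower application at 500, 250, 125, 60, 30, 15 or 7.5 g/ha, with methyl oleate EC (1.5 liter/ha) and Tween 80 added.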

Digitaria sanguinalis = details: for Weeding effect in post-emergence stage, Digitaria sanguinalis: level of fresh weight growth control rate; for Weeding effect in post-emergence stage, Digitaria sanguinalis (level): fresh weight control rate level
Summary of the method: as §1

Eleusine indica = details: for Weeding effect in post-emergence stage, Eleusine indica: level of fresh weight growth control rate; for Weeding effect in post-emergence stage, Eleusine indica (level): fresh weight control rate level
Summary of the method: as §1

Setaria viridis = details: for Weeding effect in post-emergence stage, Setaria viridis: level of fresh weight growth control rate; for Weeding effect in post-emergence stage, Setaria viridis (level): fresh weight control rate level
Summary of the method: as §1

Abutilon theophrasti = details: for Weeding effect in post-emergence stage, Abutilon theophrasti: level of fresh weight growth control rate; for Weeding effect in post-emergence stage, Abutilon theophrasti (level): fresh weight control rate level
Summary of the method: as §1

Echinochloa crusgalli = details: for Weeding effect in post-emergence stage, Echinochloa crusgalli: level of fresh weight growth control rate; for Weeding effect in post-emergence stage, Echinochloa crusgalli (level): fresh weight control rate level
Summary of the method: as §1

CC(O/N=C/c1cc(-n2c(=O)cc(C(F)(F)F)n(C)c2=O)c(F)cc1Cl)C(=O)OC/C=C/Cl (racemic) [Compound 225]
Weeding effect in post-emergence stage, Alopecurus japonicus (Alopecurus japonicus; Dose 15 g/ha): 4 (Level 4: growth control rate is greater than or equal to 60% and less than 85%) | Weeding effect in post-emergence stage, Digitaria sanguinalis (Digitaria sanguinalis; Dose 15 g/ha): 5 (Level 5: growth control rate is above 85%) | Weeding effect in post-emergence stage, Eleusine indica (Eleusine indica; Dose 15 g/ha): 5 (Level 5: growth control rate is above 85%) | Weeding effect in post-emergence stage, Setaria viridis (Setaria viridis; Dose 15 g/ha): 5 (Level 5: growth control rate is above 85%) | Weeding effect in post-emergence stage, Abutilon theophrasti (Abutilon theophrasti; Dose 15 g/ha): 5 (Level 5: growth control rate is above 85%) | Weeding effect in post-emergence stage, Echinochloa crusgalli (Echinochloa crusgalli; Dose 15 g/ha): 5 (Level 5: growth control rate is above 85%)

CC(O/N=C/c1cc(-n2c(=O)cc(C(F)(F)F)n(C)c2=O)c(F)cc1Cl)C(=O)OCC#N (racemic) [Compound 226]
Weeding effect in post-emergence stage, Alopecurus japonicus (Alopecurus japonicus; Dose 15 g/ha): 5 (Level 5: growth control rate is above 85%) | Weeding effect in post-emergence stage, Digitaria sanguinalis (Digitaria sanguinalis; Dose 15 g/ha): 5 (Level 5: growth control rate is above 85%) | Weeding effect in post-emergence stage, Eleusine indica (Eleusine indica; Dose 15 g/ha): 5 (Level 5: growth control rate is above 85%) | Weeding effect in post-emergence stage, Setaria viridis (Setaria viridis; Dose 15 g/ha): 5 (Level 5: growth control rate is above 85%) | Weeding effect in post-emergence stage, Abutilon theophrasti (Abutilon theophrasti; Dose 15 g/ha): 5 (Level 5: growth control rate is above 85%) | Weeding effect in post-emergence stage, Echinochloa crusgalli (Echinochloa crusgalli; Dose 15 g/ha): 5 (Level 5: growth control rate is above 85%)

CC(O/N=C/c1cc(-n2c(=O)cc(C(F)(F)F)n(C)c2=O)c(F)cc1Cl)C(=O)OCCC#N (racemic) [Compound 227]
Weeding effect in post-emergence stage, Alopecurus japonicus (Alopecurus japonicus; Dose 15 g/ha): 5 (Level 5: growth control rate is above 85%) | Weeding effect in post-emergence stage, Digitaria sanguinalis (Digitaria sanguinalis; Dose 15 g/ha): 5 (Level 5: growth control rate is above 85%) | Weeding effect in post-emergence stage, Eleusine indica (Eleusine indica; Dose 15 g/ha): 5 (Level 5: growth control rate is above 85%) | Weeding effect in post-emergence stage, Setaria viridis (Setaria viridis; Dose 15 g/ha): 5 (Level 5: growth control rate is above 85%) | Weeding effect in post-emergence stage, Abutilon theophrasti (Abutilon theophrasti; Dose 15 g/ha): 5 (Level 5: growth control rate is above 85%) | Weeding effect in post-emergence stage, Echinochloa crusgalli (Echinochloa crusgalli; Dose 15 g/ha): 5 (Level 5: growth control rate is above 85%)

CC(O/N=C/c1cc(-n2c(=O)cc(C(F)(F)F)n(C)c2=O)c(F)cc1Cl)C(=O)OCCO (racemic) [Compound 228]
Weeding effect in post-emergence stage, Alopecurus japonicus (Alopecurus japonicus; Dose 15 g/ha): 5 (Level 5: growth control rate is above 85%) | Weeding effect in post-emergence stage, Digitaria sanguinalis (Digitaria sanguinalis; Dose 15 g/ha): 5 (Level 5: growth control rate is above 85%) | Weeding effect in post-emergence stage, Eleusine indica (Eleusine indica; Dose 15 g/ha): 5 (Level 5: growth control rate is above 85%) | Weeding effect in post-emergence stage, Setaria viridis (Setaria viridis; Dose 15 g/ha): 5 (Level 5: growth control rate is above 85%) | Weeding effect in post-emergence stage, Abutilon theophrasti (Abutilon theophrasti; Dose 15 g/ha): 5 (Level 5: growth control rate is above 85%) | Weeding effect in post-emergence stage, Echinochloa crusgalli (Echinochloa crusgalli; Dose 15 g/ha): 5 (Level 5: growth control rate is above 85%)

COC(=O)C(C)O/N=C/c1cc(-n2c(=S)cc(C(F)(F)F)n(C)c2=O)c(F)cc1Cl (racemic) [Compound 349]
Weeding effect in post-emergence stage, Alopecurus japonicus (Alopecurus japonicus; Dose 15 g/ha): 5 (Level 5: growth control rate is above 85%) | Weeding effect in post-emergence stage, Digitaria sanguinalis (Digitaria sanguinalis; Dose 15 g/ha): 5 (Level 5: growth control rate is above 85%) | Weeding effect in post-emergence stage, Eleusine indica (Eleusine indica; Dose 15 g/ha): 5 (Level 5: growth control rate is above 85%) | Weeding effect in post-emergence stage, Setaria viridis (Setaria viridis; Dose 15 g/ha): 5 (Level 5: growth control rate is above 85%) | Weeding effect in post-emergence stage, Abutilon theophrasti (Abutilon theophrasti; Dose 15 g/ha): 5 (Level 5: growth control rate is above 85%) | Weeding effect in post-emergence stage, Echinochloa crusgalli (Echinochloa crusgalli; Dose 15 g/ha): 5 (Level 5: growth control rate is above 85%)

COC(=O)C(C)O/N=C/c1cc(-n2c(=S)cc(C(F)(F)F)n(C)c2=S)c(F)cc1Cl (racemic) [Compound 351]
Weeding effect in post-emergence stage, Alopecurus japonicus (Alopecurus japonicus; Dose 60 g/ha): 5 (Level 5: growth control rate is above 85%) | Weeding effect in post-emergence stage, Digitaria sanguinalis (Digitaria sanguinalis; Dose 60 g/ha): 5 (Level 5: growth control rate is above 85%) | Weeding effect in post-emergence stage, Eleusine indica (Eleusine indica; Dose 60 g/ha): 5 (Level 5: growth control rate is above 85%) | Weeding effect in post-emergence stage, Setaria viridis (Setaria viridis; Dose 60 g/ha): 5 (Level 5: growth control rate is above 85%) | Weeding effect in post-emergence stage, Abutilon theophrasti (Abutilon theophrasti; Dose 60 g/ha): 5 (Level 5: growth control rate is above 85%) | Weeding effect in post-emergence stage, Echinochloa crusgalli (Echinochloa crusgalli; Dose 60 g/ha): 5 (Level 5: growth control rate is above 85%)

COC(=O)C(C)O/N=C/c1cc(-n2c(=S)cc(C(F)(F)F)n(C)c2=O)c(F)cc1Br (racemic) [Compound 388]
Weeding effect in post-emergence stage, Alopecurus japonicus (level) (Alopecurus japonicus; Dose 15 g/ha): 4 (Level 4: growth control rate is greater than or equal to 60% and less than 85%) | Weeding effect in post-emergence stage, Digitaria sanguinalis (level) (Digitaria sanguinalis; Dose 15 g/ha): 5 (Level 5: growth control rate is above 85%) | Weeding effect in post-emergence stage, Eleusine indica (level) (Eleusine indica; Dose 15 g/ha): 5 (Level 5: growth control rate is above 85%) | Weeding effect in post-emergence stage, Setaria viridis (level) (Setaria viridis; Dose 15 g/ha): 5 (Level 5: growth control rate is above 85%) | Weeding effect in post-emergence stage, Abutilon theophrasti (level) (Abutilon theophrasti; Dose 15 g/ha): 5 (Level 5: growth control rate is above 85%) | Weeding effect in post-emergence stage, Echinochloa crusgalli (level) (Echinochloa crusgalli; Dose 15 g/ha): 5 (Level 5: growth control rate is above 85%)

COC(=O)C(C)O/N=C/c1cc(-n2c(=S)cc(C(F)(F)F)n(C)c2=S)c(F)cc1C#N (racemic) [Compound 390]
Weeding effect in post-emergence stage, Alopecurus japonicus (level) (Alopecurus japonicus; Dose 15 g/ha): 5 (Level 5: growth control rate is above 85%) | Weeding effect in post-emergence stage, Digitaria sanguinalis (level) (Digitaria sanguinalis; Dose 15 g/ha): 5 (Level 5: growth control rate is above 85%) | Weeding effect in post-emergence stage, Eleusine indica (level) (Eleusine indica; Dose 15 g/ha): 5 (Level 5: growth control rate is above 85%) | Weeding effect in post-emergence stage, Setaria viridis (level) (Setaria viridis; Dose 15 g/ha): 5 (Level 5: growth control rate is above 85%) | Weeding effect in post-emergence stage, Abutilon theophrasti (level) (Abutilon theophrasti; Dose 15 g/ha): 5 (Level 5: growth control rate is above 85%) | Weeding effect in post-emergence stage, Echinochloa crusgalli (level) (Echinochloa crusgalli; Dose 15 g/ha): 5 (Level 5: growth control rate is above 85%)

COC(=O)C(C)O/N=C/c1cc(-n2c(=S)cc(C(F)(F)F)n(C)c2=S)c(F)cc1Br (racemic) [Compound 391]
Weeding effect in post-emergence stage, Alopecurus japonicus (level) (Alopecurus japonicus; Dose 60 g/ha): 5 (Level 5: growth control rate is above 85%) | Weeding effect in post-emergence stage, Digitaria sanguinalis (level) (Digitaria sanguinalis; Dose 60 g/ha): 5 (Level 5: growth control rate is above 85%) | Weeding effect in post-emergence stage, Eleusine indica (level) (Eleusine indica; Dose 60 g/ha): 5 (Level 5: growth control rate is above 85%) | Weeding effect in post-emergence stage, Setaria viridis (level) (Setaria viridis; Dose 60 g/ha): 5 (Level 5: growth control rate is above 85%) | Weeding effect in post-emergence stage, Abutilon theophrasti (level) (Abutilon theophrasti; Dose 60 g/ha): 5 (Level 5: growth control rate is above 85%) | Weeding effect in post-emergence stage, Echinochloa crusgalli (level) (Echinochloa crusgalli; Dose 60 g/ha): 5 (Level 5: growth control rate is above 85%)

COC(=O)C(C)O/N=C/c1cc(-n2c(=S)cc(C(F)(F)F)n(C)c2=S)c(F)cc1C(F)(F)F (racemic) [Compound 392]
Weeding effect in post-emergence stage, Alopecurus japonicus (level) (Alopecurus japonicus; Dose 60 g/ha): 5 (Level 5: growth control rate is above 85%) | Weeding effect in post-emergence stage, Digitaria sanguinalis (level) (Digitaria sanguinalis; Dose 60 g/ha): 5 (Level 5: growth control rate is above 85%) | Weeding effect in post-emergence stage, Eleusine indica (level) (Eleusine indica; Dose 60 g/ha): 5 (Level 5: growth control rate is above 85%) | Weeding effect in post-emergence stage, Setaria viridis (level) (Setaria viridis; Dose 60 g/ha): 5 (Level 5: growth control rate is above 85%) | Weeding effect in post-emergence stage, Abutilon theophrasti (level) (Abutilon theophrasti; Dose 60 g/ha): 5 (Level 5: growth control rate is above 85%) | Weeding effect in post-emergence stage, Echinochloa crusgalli (level) (Echinochloa crusgalli; Dose 60 g/ha): 5 (Level 5: growth control rate is above 85%)

COC(=O)C(C)O/N=C/c1cc(-n2c(=S)cc(C(F)(F)F)n(C)c2=S)c(F)cc1C#N (racemic) [Compound 393]
Weeding effect in post-emergence stage, Alopecurus japonicus (level) (Alopecurus japonicus; Dose 60 g/ha): 5 (Level 5: growth control rate is above 85%) | Weeding effect in post-emergence stage, Digitaria sanguinalis (level) (Digitaria sanguinalis; Dose 60 g/ha): 5 (Level 5: growth control rate is above 85%) | Weeding effect in post-emergence stage, Eleusine indica (level) (Eleusine indica; Dose 60 g/ha): 5 (Level 5: growth control rate is above 85%) | Weeding effect in post-emergence stage, Setaria viridis (level) (Setaria viridis; Dose 60 g/ha): 5 (Level 5: growth control rate is above 85%) | Weeding effect in post-emergence stage, Abutilon theophrasti (level) (Abutilon theophrasti; Dose 60 g/ha): 5 (Level 5: growth control rate is above 85%) | Weeding effect in post-emergence stage, Echinochloa crusgalli (level) (Echinochloa crusgalli; Dose 60 g/ha): 5 (Level 5: growth control rate is above 85%)
